# Experimental data reported in US9505769B2 (ASCENEURON SA, priority 2013, dated 2016).
# Where a name gives a salt, the structure may show the parent alone.
# Target: T1, human muscarinic acetylcholine M1 receptor (Homo sapiens, UniProt P11229)
# T1 construct: expressed in transfected cells; host or cells: CHO-K1
# T1 sequence (P11229 1-460): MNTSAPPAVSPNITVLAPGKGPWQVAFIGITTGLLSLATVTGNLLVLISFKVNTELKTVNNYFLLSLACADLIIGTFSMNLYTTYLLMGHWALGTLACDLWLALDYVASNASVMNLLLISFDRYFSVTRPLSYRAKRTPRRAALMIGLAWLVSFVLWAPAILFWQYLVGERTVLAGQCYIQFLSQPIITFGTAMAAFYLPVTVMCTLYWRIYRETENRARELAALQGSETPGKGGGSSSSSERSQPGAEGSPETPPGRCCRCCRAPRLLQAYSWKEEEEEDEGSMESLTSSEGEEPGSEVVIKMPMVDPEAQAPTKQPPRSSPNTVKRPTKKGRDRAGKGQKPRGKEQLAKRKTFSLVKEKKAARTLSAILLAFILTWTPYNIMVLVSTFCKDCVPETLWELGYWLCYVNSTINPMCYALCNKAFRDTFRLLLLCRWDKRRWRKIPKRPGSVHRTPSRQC
# Assay: M1 PAM Assay (IP-One HTRF, IP1 accumulation in M1-CHO cells)
# Type: cell-based
# Conditions: not given
# Procedure: Then diluted compounds (0.6% DMSO final concentration) are added together with EC20 of acetylcholine and incubated with the cells for 30 min at 37° C., 5% CO2.
# CHO-K1 cells stably transfected with human muscarinic acetylcholine M1 receptor are cultured in Ham's F12 medium containing 10% heat inactivated fetal calf serum, 2 mM L-glutamine and Penicillin-Streptomycin grown in a humidified atmosphere at 5% CO2/95% air at 37° C.
row,Compound,EC50
1,"Cc1nc2c3c(nn2c(C)c1Cl)CN(C(=O)c1ccc(F)cc1O[C@H]1C[C@H]2CC[C@@H](C1)N2CCO)C3 [Example 37, (3-chloro-2,4-dimethyl-7H-pyrrolo[3′,4′:3,4]pyrazolo[1,5-a]pyrimidin-8(9H)-yl)(4-fluoro-2-{[(3-endo)-8-(2-hydroxyethyl)-8-azabicyclo[3.2.1]oct-3-yl]oxy}phenyl)methanone]",< 200 nM
2,"COCCN1[C@@H]2CC[C@H]1C[C@@H](Oc1cc(F)ccc1C(=O)N1Cc3nn4cc(Cl)cnc4c3C1)C2 [Example 52, (3-chloro-7H-pyrrolo[3′,4′:3,4]pyrazolo[1,5-a]pyrimidin-8(9H)-yl)(4-fluoro-2-{[(3-endo)-8-(2-methoxyethyl)-8-azabicyclo[3.2.1]oct-3-yl]oxy}phenyl)methanone]",200 to 1000 nM
3,"Cc1nc2c3c(nn2c(C)c1Cl)CN(C(=O)c1ccc(F)cc1O[C@H]1C[C@H]2CC[C@@H](C1)N2CCF)C3 [Example 36, (3-chloro-2,4-dimethyl-7H-pyrrolo[3′,4′:3,4]pyrazolo[1,5-a]pyrimidin-8(9H)-yl)(4-fluoro-2-{[(3-endo)-8-(2-fluoroethyl)-8-azabicyclo[3.2.1]oct-3-yl]oxy}phenyl)methanone]",< 200 nM
4,"CN1[C@@H]2CC[C@H]1C[C@@H](Oc1cc(F)ccc1C(=O)N1Cc3nn4cc(C5CC5)cnc4c3C1)C2 [Example 74, (3-cyclopropyl-7H-pyrrolo[3′,4′:3,4]pyrazolo[1,5-a]pyrimidin-8(9H)-yl)(4-fluoro-2-{[(3-endo)-8-methyl-8-azabicyclo[3.2.1]oct-3-yl]oxy}phenyl)methanone]",< 200 nM

# Same assay, conditions: CHO-K1 cells stably transfected with human M1 receptor; compounds added with EC20 of acetylcholine (25 nM), 30 min; intracellular IP1 by IP-One HTRF; read-out: M1 PAM EC50
row,Compound,EC50
1,Cc1nc2c3c(nn2c(C)c1Cl)CN(C(=O)c1ccccc1C(C)N1CCNCC1)C3 (centres unmarked) [Example 6],1000 to 3000 nM
2,"Cc1nc2c3c(nn2c(C)c1Cl)CN(C(=O)c1ccc(Br)cc1OCCN(C)C)C3 [Example 31, (4-bromo-2-(2-(dimethylamino)ethoxy)phenyl)(3-chloro-2,4-dimethyl-7H-pyrrolo[3′,4′:3,4]pyrazolo[1,5-a]pyrimidin-8(9H)-yl)methanone]",200 to 1000 nM
3,"Cc1nc2c3c(nn2c(C)c1Cl)CN(C(=O)c1ccccc1O[C@H]1CN(C)C[C@@H]1O)C3 (racemic) [Example 13, (anti)-(6-Chloro-5,7-dimethyl-1H,3H-2,4,7a,8-tetraaza-cyclopenta[a]inden-2-yl)-[2-(4-hydroxy-1-methyl-pyrrolidin-3-yloxy)-phenyl]-methanone]",1000 to 3000 nM
4,"Cc1nc2c3c(nn2c(C)c1Cl)CN(C(=O)c1ccc(F)cc1O[C@H]1CN(C)C[C@@H]1O)C3 (racemic) [Example 45, (anti)-(6-Chloro-5,7-dimethyl-1H,3H-2,4,7a,8-tetraaza-cyclopenta[a]inden-2-yl)-[4-fluoro-2-(4-hydroxy-1-methyl-pyrrolidin-3-yloxy)-phenyl]-methanone]",200 to 1000 nM
5,"Cc1nc2c3c(nn2c(C)c1Cl)CN(C(=O)c1ccc(F)cc1OC1CCN(CCO)CC1)C3 [Example 32, (6-Chloro-5,7-dimethyl-1H,3H-2,4,7a,8-tetraaza-cyclopenta[a]inden-2-yl)-{4-fluoro-2-[1-(2-hydroxy-ethyl)-piperidin-4-yloxy]-phenyl}-methanone]",< 200 nM
6,"Cc1nc2c3c(nn2c(C)c1Cl)CN(C(=O)c1ccc(F)cc1OCC1(N)CC1)C3 [Example 68, (2-((1-aminocyclopropyl)methoxy)-4-fluorophenyl)(3-chloro-2,4-dimethyl-7H-pyrrolo[3′,4′:3,4]pyrazolo[1,5-a]pyrimidin-8(9H)-yl)methanone]",1000 to 3000 nM
7,"Cc1nc2c3c(nn2c(C)c1Cl)CN(C(=O)c1ccc(F)cc1OC1CCN(C(CO)CO)CC1)C3 [Example 29, (6-Chloro-5,7-dimethyl-1H,3H-2,4,7a8-tetraaza-cyclopenta[a]inden-2-y)-{4-fluoro-2-[1-(2-hydroxy-1-hydroxymethyl-ethyl)-piperidin-4-yloxy]-phenyl}-methanone]",< 200 nM
8,Cc1nc2c3c(nn2c(C)c1Cl)CN(C(=O)c1ccc(F)cc1O[C@H]1CCNC[C@H]1F)C3 (racemic) [Example 18],200 to 1000 nM
9,"Cc1nc2c3c(nn2c(C)c1Cl)CN(C(=O)c1ccccc1O[C@H]1CCNC[C@@H]1O)C3 (single isomer, unassigned) [Example 5]",200 to 1000 nM
10,"Cc1nc2c3c(nn2c(C)c1Cl)CN(C(=O)c1ccc(F)cc1O[C@H]1CCN[C@@H](C)C1)C3 (stereo in doubt) [Example 48, (3-chloro-2,4-dimethyl-7H-pyrrolo[3′,4′:3,4]pyrazolo[1,5-a]pyrimidin-8(9H)-yl)(4-fluoro-2-((2-methylpiperidin-4-yl)oxy)phenyl)methanone hydrochloride]",200 to 1000 nM

# Other lines, results leading:
row,EC50,Compound
1,1000 to 3000 nM,"Cc1nc2c3c(nn2c(C)c1Cl)CN(C(=O)c1ccncc1OC1CCN(C)CC1)C3 [Example 3, (3-chloro-2,4-dimethyl-7H-pyrrolo[3′,4′:3,4]pyrazolo[1,5-a]pyrimidin-8(9H)-yl)(3-((1-methylpiperidin-4-yl)oxy)pyridin-4-yl)methanone]"
2,200 to 1000 nM,"Cc1nc2c3c(nn2c(C)c1Cl)CN(C(=O)c1ccc(F)cc1OC[C@H]1C[C@H](F)CN1)C3 [Example 55, (6-Chloro-5,7-dimethyl-1H,3H-2,4,7a,8-tetraaza-cyclopenta[a]inden-2-yl)-[4-fluoro-2-((2R,4S)-4-fluoro-pyrrolidin-2-ylmethoxy)-phenyl]-methanone]"
3,< 200 nM,"Cc1nc2c3c(nn2c(C)c1Cl)CN(C(=O)c1ccc(F)cc1OCCc1cncc(F)c1)C3 [Example 43, (3-chloro-2,4-dimethyl-7H-pyrrolo[3′,4′:3,4]pyrazolo[1,5-a]pyrimidin-8(9H)-yl)(4-fluoro-2-(2-(5-fluoropyridin-3-yl)ethoxy)phenyl)methanone]"
4,< 200 nM,"Cc1nc2c3c(nn2c(C)c1Cl)CN(C(=O)c1ccc(F)cc1OC[C@H]1C[C@@H](F)CN1)C3 [Example 60, (6-Chloro-5,7-dimethyl-1H,3H-2,4,7a,8-tetraaza-cyclopenta[a]inden-2-yl)-[4-fluoro-2-((2R,4R)-4-fluoro-pyrrolidin-2-ylmethoxy)-phenyl]-methanone]"
5,200 to 1000 nM,"Cc1nc2c3c(nn2c(C)c1Cl)CN(C(=O)c1ccccc1O[C@H]1CNC[C@@H]1O)C3 (racemic) [Example 4, (anti)-(6-Chloro-5,7-dimethyl-1H,3H-2,4,7a,8-tetraaza-cyclopenta[a]inden-2-yl)-[2-(4-hydroxy-pyrrolidin-3-yloxy)-phenyl]-methanone]"
6,200 to 1000 nM,"Cc1nc2c3c(nn2c(C)c1Cl)CN(C(=O)c1ccc(F)cc1OC1CCN(CC(O)C(F)(F)F)CC1)C3 (centres unmarked) [Example 75, (6-Chloro-5,7-dimethyl-1H,3H-2,4,7a,8-tetraaza-cyclopenta[a]inden-2-yl)-{4-fluoro-2-[1-(3,3,3-trifluoro-2-hydroxy-propyl)-piperidin-4-yloxy]-phenyl}-methanone]"
7,1000 to 3000 nM,"Cc1nc2c3c(nn2c(C)c1Cl)CN(C(=O)c1ccc(F)cc1OC1CN(CCF)C1)C3 [Example 46, (3-chloro-2,4-dimethyl-7H-pyrrolo[3′,4′:3,4]pyrazolo[1,5-a]pyrimidin-8(9H)-yl)(4-fluoro-2-((1-(2-fluoroethyl)azetidin-3-yl)oxy)phenyl)methanone]"
8,< 200 nM,"CCCN1CCC(Oc2cc(F)ccc2C(=O)N2Cc3nn4c(C)c(Cl)c(C)nc4c3C2)CC1 [Example 77, (6-Chloro-5,7-dimethyl-1H,3H-2,4,7a,8-tetraaza-cyclopenta[a]inden-2-yl)-[4-fluoro-2-(1-propyl-piperidin-4-yloxy)-phenyl]-methanone]"
9,< 200 nM,"Cc1nc2c3c(nn2c(C)c1Cl)CN(C(=O)c1ccc(F)cc1OC[C@H]1CC(F)(F)CN1)C3 [Example 56, (6-Chloro-5,7-dimethyl-1H,3H-2,4,7a,8-tetraaza-cyclopenta[a]inden-2-yl)-[2-((R)-4,4-difluoro-pyrrolidin-2-ylmethoxy)-4-fluoro-phenyl]-methanone]"
10,200 to 1000 nM,"Cc1nc2c3c(nn2c(C)c1Cl)CN(C(=O)c1ccc(F)cc1O[C@H]1CNC[C@@H]1O)C3 (racemic) [Example 27, (anti)-(6-Chloro-5,7-dimethyl-1H,3H-2,4,7a,8-tetraaza-cyclopenta[a]inden-2-yl)-[4-fluoro-2-(4-hydroxy-pyrrolidin-3-yloxy)-phenyl]-methanone]"
11,1000 to 3000 nM,"(3-chloro-4-ethyl-2-methyl-7H-pyrrolo[3′,4′:3,4]pyrazolo[1,5-a]pyrimidin-8(9H)-yl)(2-((4-hydroxytetrahydrofuran-3-yl)oxy)phenyl)methanone or (3-chloro-2-ethyl-4-methyl-7H-pyrrolo[3′,4′:3,4]pyrazolo[1,5-a]pyrimidin-8(9H)-yl)(2-((4-hydroxytetrahydrofuran-3-yl)oxy)phenyl)methanone [Example 22]"
12,1000 to 3000 nM,"Cc1nc2c3c(nn2c(C)c1Cl)CN(C(=O)c1ccc(F)cc1OC1CCC(F)(F)CC1)C3 [Example 47, (3-chloro-2,4-dimethyl-7H-pyrrolo[3′,4′:3,4]pyrazolo[1,5-a]pyrimidin-8(9H)-yl)(2-((4,4-difluorocyclohexyl)oxy)-4-fluorophenyl)methanone]"
